6 compounds from ChEMBL document CHEMBL1909046, “DrugMatrix in vitro pharmacology data” can be followed below.

Series [1] deals with T1, Alpha-1D adrenergic receptor (Homo sapiens, UniProt P25100).
T1 sequence (P25100 whole entry): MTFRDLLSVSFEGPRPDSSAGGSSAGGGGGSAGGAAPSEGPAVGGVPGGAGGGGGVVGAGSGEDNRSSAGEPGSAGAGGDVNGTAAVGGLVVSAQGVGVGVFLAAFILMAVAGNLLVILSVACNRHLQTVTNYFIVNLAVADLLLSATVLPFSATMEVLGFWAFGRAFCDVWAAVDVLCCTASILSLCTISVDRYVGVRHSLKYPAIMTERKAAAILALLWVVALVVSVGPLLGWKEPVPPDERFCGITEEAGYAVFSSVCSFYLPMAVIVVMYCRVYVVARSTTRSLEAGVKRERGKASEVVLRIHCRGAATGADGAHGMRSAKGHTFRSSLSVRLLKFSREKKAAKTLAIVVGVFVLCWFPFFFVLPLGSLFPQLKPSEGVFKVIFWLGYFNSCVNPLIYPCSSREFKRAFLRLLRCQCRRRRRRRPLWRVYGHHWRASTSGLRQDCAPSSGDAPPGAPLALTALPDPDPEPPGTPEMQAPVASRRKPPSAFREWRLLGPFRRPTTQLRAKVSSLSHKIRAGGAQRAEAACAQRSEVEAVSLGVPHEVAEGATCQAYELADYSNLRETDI
The format is cell membranes, HEK293, Membrane. The conditions noted are these: hek293.

Series [2] is described as follows: DRUGMATRIX: Sigma2 radioligand binding (ligand: [3H] Ifenprodil). Type of series: cell membranes, Rattus norvegicus, Wistar, Brain, Membrane. The conditions noted are these: Not Active = under 50% inhibition at 10 µM.
Another series deals with T2, Substance-K receptor (Homo sapiens, UniProt P21452).
T2 sequence (P21452 whole entry): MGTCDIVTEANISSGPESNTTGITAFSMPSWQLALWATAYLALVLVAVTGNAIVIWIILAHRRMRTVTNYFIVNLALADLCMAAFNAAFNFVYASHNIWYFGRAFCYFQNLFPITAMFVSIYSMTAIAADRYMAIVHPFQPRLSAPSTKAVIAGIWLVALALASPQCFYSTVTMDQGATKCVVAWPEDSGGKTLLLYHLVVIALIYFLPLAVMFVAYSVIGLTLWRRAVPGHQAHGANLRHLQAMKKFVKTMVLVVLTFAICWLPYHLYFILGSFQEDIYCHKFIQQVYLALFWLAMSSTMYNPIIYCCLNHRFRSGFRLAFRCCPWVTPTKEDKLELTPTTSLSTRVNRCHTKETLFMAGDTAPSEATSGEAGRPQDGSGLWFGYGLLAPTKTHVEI
Type of series: cell membranes, CHO, Membrane. The conditions noted are these: cho.

For a further series, the target named is Cannabinoid receptor 1 (Homo sapiens, UniProt P21554). The format is cell membranes, Membrane. The conditions noted are these: chem-1. Further: in other assays of this panel Not Active means under 50% inhibition at 10 µM.
For a further series, the target named is Carbonic anhydrase 2 (Homo sapiens, UniProt P00918). The experiment in a line: DRUGMATRIX: Carbonic Anhydrase II enzyme inhibition (substrate: 4-Nitrophenyl acetate (4-NPA)). The format is tissue-based, Erythrocyte. The conditions noted are these: erythrocyte; Not Active = under 50% inhibition at 10 µM.
A short description of series [3]: DRUGMATRIX: GABAA, Muscimol, Central radioligand binding (ligand: [3H] Muscimol). The format is cell membranes, Rattus norvegicus, Wistar, Brain, Membrane. The conditions noted are these: Not Active = under 50% inhibition at 10 µM.
Another series deals with T3, Leukotriene C4 synthase (Cavia porcellus, UniProt A6XA80).
T3 sequence (A6XA80 whole entry): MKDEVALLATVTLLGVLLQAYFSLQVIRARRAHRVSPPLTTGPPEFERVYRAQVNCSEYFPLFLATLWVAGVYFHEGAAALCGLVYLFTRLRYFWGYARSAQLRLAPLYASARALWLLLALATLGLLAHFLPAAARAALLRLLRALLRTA
The experiment in a line: biochemical. Type of series: tissue-based, Lung.

Series [4] addresses Mitogen-activated protein kinase 14 (Homo sapiens, UniProt Q16539). Also on record: species or system Escherichia coli.
Series [5] deals with Tyrosine-protein kinase Fyn (Homo sapiens, UniProt P06241). The experiment in a line: biochemical. The note with it: insect cells. The format is cell-based, Insect cells.
Another series has as its target Acetylcholinesterase (Homo sapiens, UniProt P22303). The experiment in a line: DRUGMATRIX: Acetylcholinesterase enzyme inhibition (substrate: acetylthiocholine). The format is cell-based, HEK293. The note with it: hek293; Not Active = under 50% inhibition at 10 µM.
For the next series, the target named is T4, Adenosine receptor A3 (Homo sapiens, UniProt P0DMS8).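 Further: radioligand binding assay with AB-MECA serving as the labeled ligand; in other assays of this panel Not Active means under 50% inhibition at 10 µM.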
T4 sequence (P0DMS8 whole entry): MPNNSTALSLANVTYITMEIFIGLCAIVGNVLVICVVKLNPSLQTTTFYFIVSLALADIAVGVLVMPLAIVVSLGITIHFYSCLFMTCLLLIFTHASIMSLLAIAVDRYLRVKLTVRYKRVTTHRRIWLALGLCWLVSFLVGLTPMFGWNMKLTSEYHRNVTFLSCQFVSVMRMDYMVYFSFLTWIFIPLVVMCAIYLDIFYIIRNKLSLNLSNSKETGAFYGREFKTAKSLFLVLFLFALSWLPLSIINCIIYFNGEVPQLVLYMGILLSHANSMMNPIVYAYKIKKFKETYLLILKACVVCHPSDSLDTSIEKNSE
Type of series: cell membranes, CHO-K1, Membrane. The conditions noted are these: cho-k1.

The next series deals with T5, Cytochrome P450 2A6 (Homo sapiens, UniProt P11509).
T5 sequence (P11509 whole entry): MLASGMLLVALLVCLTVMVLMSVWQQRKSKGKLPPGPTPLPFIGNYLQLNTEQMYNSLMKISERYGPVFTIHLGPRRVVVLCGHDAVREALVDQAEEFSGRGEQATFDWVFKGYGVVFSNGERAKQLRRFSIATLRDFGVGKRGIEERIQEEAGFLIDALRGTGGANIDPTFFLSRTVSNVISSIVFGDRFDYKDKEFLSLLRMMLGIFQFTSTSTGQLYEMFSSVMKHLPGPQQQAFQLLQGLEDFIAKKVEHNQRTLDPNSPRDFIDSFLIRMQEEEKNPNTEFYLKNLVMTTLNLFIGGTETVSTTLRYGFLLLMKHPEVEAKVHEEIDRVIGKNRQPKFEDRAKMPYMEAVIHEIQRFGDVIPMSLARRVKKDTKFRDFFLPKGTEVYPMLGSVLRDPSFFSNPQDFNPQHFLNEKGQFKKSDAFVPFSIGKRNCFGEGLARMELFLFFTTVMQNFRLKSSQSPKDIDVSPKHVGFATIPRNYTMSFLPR
The conditions noted are these: bti-tn-5b1-4.

The target of another series is Cytochrome P450 2C9 (Homo sapiens, UniProt P11712). The conditions noted are these: bti-tn-5b1-4. Further: in other assays of this panel Not Active means under 50% inhibition at 10 µM.
Chain of Cytochrome P450 2C9 (P11712 whole entry): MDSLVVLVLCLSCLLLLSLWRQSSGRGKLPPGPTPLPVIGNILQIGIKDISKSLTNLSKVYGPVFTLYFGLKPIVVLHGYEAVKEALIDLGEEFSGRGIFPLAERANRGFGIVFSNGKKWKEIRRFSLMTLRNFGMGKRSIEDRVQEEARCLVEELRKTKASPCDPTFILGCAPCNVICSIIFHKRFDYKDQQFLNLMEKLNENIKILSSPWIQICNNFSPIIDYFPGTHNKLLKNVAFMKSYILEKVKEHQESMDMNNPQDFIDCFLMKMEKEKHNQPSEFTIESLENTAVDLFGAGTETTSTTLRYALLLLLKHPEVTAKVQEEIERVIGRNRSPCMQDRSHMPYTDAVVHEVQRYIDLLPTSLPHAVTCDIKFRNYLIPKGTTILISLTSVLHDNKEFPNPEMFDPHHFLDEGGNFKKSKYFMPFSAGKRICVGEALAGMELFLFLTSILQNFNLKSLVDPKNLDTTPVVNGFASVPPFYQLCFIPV

Chain of Cannabinoid receptor 1 (P21554 whole entry): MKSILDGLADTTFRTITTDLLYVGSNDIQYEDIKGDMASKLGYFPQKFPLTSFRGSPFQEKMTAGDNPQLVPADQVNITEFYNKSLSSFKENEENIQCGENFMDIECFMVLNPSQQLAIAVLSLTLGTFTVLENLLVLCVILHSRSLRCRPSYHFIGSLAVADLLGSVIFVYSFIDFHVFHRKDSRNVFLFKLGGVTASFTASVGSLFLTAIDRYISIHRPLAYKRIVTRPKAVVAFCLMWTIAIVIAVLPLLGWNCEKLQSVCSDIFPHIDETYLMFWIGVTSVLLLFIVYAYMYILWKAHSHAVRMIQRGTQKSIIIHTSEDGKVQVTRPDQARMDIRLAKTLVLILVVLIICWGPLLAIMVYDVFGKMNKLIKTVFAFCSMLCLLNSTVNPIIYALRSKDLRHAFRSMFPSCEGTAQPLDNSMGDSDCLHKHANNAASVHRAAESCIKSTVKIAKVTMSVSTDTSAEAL
Chain of Tyrosine-protein kinase Fyn (P06241 whole entry): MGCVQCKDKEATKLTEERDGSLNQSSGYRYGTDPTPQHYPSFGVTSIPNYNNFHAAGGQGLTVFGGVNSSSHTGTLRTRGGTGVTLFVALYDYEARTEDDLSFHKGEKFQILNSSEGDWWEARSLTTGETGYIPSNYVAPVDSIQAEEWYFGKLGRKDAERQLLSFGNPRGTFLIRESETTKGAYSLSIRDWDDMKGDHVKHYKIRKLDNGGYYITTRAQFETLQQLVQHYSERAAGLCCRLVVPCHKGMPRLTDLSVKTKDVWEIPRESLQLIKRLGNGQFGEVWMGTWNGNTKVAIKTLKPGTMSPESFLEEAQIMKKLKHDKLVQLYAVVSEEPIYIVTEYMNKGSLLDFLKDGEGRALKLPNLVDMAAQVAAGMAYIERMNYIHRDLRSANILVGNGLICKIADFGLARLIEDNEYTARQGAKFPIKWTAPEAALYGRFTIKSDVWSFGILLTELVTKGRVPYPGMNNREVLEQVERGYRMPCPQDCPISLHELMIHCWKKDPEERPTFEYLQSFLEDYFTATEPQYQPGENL
Chain of Mitogen-activated protein kinase 14 (Q16539 whole entry): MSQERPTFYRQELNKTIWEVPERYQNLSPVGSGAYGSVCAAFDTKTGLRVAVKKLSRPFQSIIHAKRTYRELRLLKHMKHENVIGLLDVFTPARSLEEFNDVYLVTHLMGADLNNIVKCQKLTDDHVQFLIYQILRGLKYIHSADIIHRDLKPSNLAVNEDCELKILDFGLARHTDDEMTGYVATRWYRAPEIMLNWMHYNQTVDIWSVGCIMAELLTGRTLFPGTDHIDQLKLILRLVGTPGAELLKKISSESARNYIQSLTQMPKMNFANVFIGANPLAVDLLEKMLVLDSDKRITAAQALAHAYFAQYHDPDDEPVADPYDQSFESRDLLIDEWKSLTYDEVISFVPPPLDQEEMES
Chain of Acetylcholinesterase (P22303 whole entry): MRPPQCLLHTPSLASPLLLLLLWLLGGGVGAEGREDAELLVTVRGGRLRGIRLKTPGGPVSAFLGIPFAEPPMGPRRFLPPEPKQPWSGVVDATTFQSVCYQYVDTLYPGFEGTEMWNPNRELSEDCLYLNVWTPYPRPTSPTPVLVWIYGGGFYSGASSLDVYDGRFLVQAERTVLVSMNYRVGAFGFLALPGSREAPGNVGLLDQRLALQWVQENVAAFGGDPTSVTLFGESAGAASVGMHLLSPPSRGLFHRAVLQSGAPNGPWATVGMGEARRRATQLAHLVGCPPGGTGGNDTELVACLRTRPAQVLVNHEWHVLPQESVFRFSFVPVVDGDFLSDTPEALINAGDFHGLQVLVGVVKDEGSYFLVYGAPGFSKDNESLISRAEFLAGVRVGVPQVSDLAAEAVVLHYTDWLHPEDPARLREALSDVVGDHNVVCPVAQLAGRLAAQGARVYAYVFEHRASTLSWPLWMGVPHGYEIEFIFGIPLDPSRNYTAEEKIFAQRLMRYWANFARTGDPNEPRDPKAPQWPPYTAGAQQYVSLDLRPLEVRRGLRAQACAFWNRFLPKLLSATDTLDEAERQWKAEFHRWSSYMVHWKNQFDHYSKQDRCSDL

By IC50 is commonly meant the concentration that inhibits the measured activity by half. For orientation: Ki means a dissociation constant, usually derived from enzyme kinetics or from competition with a known ligand. On to `CCC1(c2ccccc2)C(=O)NCNC1=O` [PRIMIDONE], for which the 50% inhibitory concentration (IC50) result (in [1]; in series [2]; against Substance-K receptor; against Cannabinoid receptor 1; on Carbonic anhydrase 2; in series [3]) was “Not Active” each time. Also, the IC50 entry (against Leukotriene C4 synthase; in series [4]; in series [5]; against Acetylcholinesterase; against Adenosine receptor A3; against Cytochrome P450 2A6) was “Not Active” throughout. The IC50 result at Cytochrome P450 2C9 was “Not Active”. Further, the Ki result (in series [2]; in series [3]; at Cytochrome P450 2A6; on Cytochrome P450 2C9) was “Not Active” throughout.
Regarding `CCCc1cc(=O)[nH]c(=S)[nH]1` [PROPYLTHIOURACIL], the IC50 result (in series [1]; in series [2]; against Substance-K receptor; against Cannabinoid receptor 1; at Carbonic anhydrase 2; in [3]) was “Not Active” throughout. In addition, the IC50 entry (against Leukotriene C4 synthase; in [4]; in series [5]; on Acetylcholinesterase; at Adenosine receptor A3; on Cytochrome P450 2A6) was “Not Active” each time. The IC50 entry on Cytochrome P450 2C9 is “Not Active”. In addition, the Ki result (in series [2]; in series [3]; at Cytochrome P450 2A6; on Cytochrome P450 2C9) was “Not Active” throughout.
For `COc1ccc(CN(CCN(C)C)c2ccccn2)cc1` [PYRILAMINE], the half-maximal inhibitory concentration (IC50) entry (in series [1]; in series [2]; on Substance-K receptor; at Cannabinoid receptor 1; against Carbonic anhydrase 2; in series [3]) was “Not Active” in each case. Also, the IC50 entry (at Leukotriene C4 synthase; in [4]; in series [5]; against Acetylcholinesterase; at Adenosine receptor A3; at Cytochrome P450 2A6) was “Not Active” in each case. Besides, the IC50 entry against Cytochrome P450 2C9 is on record as “Not Active”. Further, the Ki result (in [2]; in series [3]; at Cytochrome P450 2A6; on Cytochrome P450 2C9) was “Not Active” in each case.
As to CARBOPLATIN, the IC50 entry (in series [1]; in series [2]; on Substance-K receptor; against Cannabinoid receptor 1; at Carbonic anhydrase 2; in [3]) was “Not Active” throughout. Also, the IC50 entry (against Leukotriene C4 synthase; in series [4]; in series [5]; at Acetylcholinesterase; against Adenosine receptor A3; against Cytochrome P450 2A6) was “Not Active” each time. The IC50 entry at Cytochrome P450 2C9 was “Not Active”. Also, the Ki entry (in series [1]; in series [2]; on Substance-K receptor; on Cannabinoid receptor 1; on Carbonic anhydrase 2; in series [3]) was “Not Active” in each case. For the same compound, the inhibitory constant (Ki) result (at Leukotriene C4 synthase; in [4]; in [5]; on Acetylcholinesterase; on Adenosine receptor A3; on Cytochrome P450 2A6) was “Not Active” in each case. For the same compound, the inhibition constant (Ki) result on Cytochrome P450 2C9 is reported as “Not Active”.
For the compound CISPLATIN, the 50% inhibitory concentration (IC50) result (in series [1]; in [2]; against Substance-K receptor; against Cannabinoid receptor 1; against Carbonic anhydrase 2; in [3]) was “Not Active” each time. Besides, the half-maximal inhibitory concentration (IC50) entry is “Not Active” on Leukotriene C4 synthase; “Not Active” in series [4]; 4770 nM in series [5] (read-out: IC50); “Not Active” at Acetylcholinesterase; 4240 nM on Adenosine receptor A3 (read-out: IC50); “Not Active” against Cytochrome P450 2A6. The IC50 result against Cytochrome P450 2C9 is “Not Active”. Further, the Ki result (in series [1]; in series [2]; at Substance-K receptor; at Cannabinoid receptor 1; at Carbonic anhydrase 2; in series [3]) was “Not Active” throughout. Moreover, the Ki result on Leukotriene C4 synthase was “Not Active”; in series [4], “Not Active”; at Acetylcholinesterase, “Not Active”; on Adenosine receptor A3 (read-out: Ki), 2400 nM; at Cytochrome P450 2A6 it was “Not Active”; at Cytochrome P450 2C9, “Not Active”.
Consider GOLD SODIUM THIOMALATE, for which the IC50 result (in [1]; in series [2]; against Substance-K receptor; against Cannabinoid receptor 1; at Carbonic anhydrase 2; in [3]) was “Not Active” throughout. The 50% inhibitory concentration (IC50) entry is “Not Active” at Leukotriene C4 synthase; “Not Active” in series [4]; 811 nM in series [5] (read-out: IC50); “Not Active” at Acetylcholinesterase; 1490 nM on Adenosine receptor A3 (read-out: IC50); “Not Active” against Cytochrome P450 2A6. For the same compound, the IC50 result against Cytochrome P450 2C9 is “Not Active”. In addition, the Ki result (in series [1]; in [2]; on Substance-K receptor; on Cannabinoid receptor 1; on Carbonic anhydrase 2; in [3]) was “Not Active” in each case. Moreover, the Ki entry was “Not Active” at Leukotriene C4 synthase; “Not Active” in series [4]; “Not Active” on Acetylcholinesterase; 843 nM at Adenosine receptor A3 (read-out: Ki); “Not Active” at Cytochrome P450 2A6; “Not Active” on Cytochrome P450 2C9.
